One assay has as its target T1, TmRhu-1PA (Thermotoga maritima, UniProt Q9X0G1).
T1 construct: gene TM_1072; recombinant, cloned, expressed and purified as in earlier work (heat step at 80 °C, cobalt salts present)
T1 sequence (Q9X0G1 1-236): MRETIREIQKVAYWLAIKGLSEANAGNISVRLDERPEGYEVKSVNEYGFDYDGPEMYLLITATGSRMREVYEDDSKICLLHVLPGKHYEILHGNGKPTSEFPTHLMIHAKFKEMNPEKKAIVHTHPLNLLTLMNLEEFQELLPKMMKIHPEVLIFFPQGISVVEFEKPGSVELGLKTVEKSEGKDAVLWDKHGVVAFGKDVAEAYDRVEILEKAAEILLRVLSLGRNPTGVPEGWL
The assay can be described thus: aldol addition, HPLC and NMR of products. Type of assay: biochemical. Conditions: acceptor; co-substrate DHAP; 20 mM phosphate pH 6.8, 45 °C.

The target of a further assay is T2, RAMA (Oryctolagus cuniculus, UniProt P00883).
T2 construct: gene ALDOA; commercial native enzyme from rabbit muscle (Sigma-Aldrich)
T2 sequence (P00883 2-364): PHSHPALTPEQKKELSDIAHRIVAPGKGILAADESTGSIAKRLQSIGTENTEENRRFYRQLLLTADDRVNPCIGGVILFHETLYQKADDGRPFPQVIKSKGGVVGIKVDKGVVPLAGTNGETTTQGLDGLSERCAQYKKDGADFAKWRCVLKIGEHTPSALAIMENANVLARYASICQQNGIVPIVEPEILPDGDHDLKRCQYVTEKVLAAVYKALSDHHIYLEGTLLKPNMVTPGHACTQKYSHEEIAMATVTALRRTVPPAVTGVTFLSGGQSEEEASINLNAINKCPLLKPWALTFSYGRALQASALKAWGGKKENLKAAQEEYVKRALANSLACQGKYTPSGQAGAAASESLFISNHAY
The assay can be described thus: aldol addition, HPLC and NMR of products. Type of assay: biochemical. Conditions: acceptor; co-substrate DHAP; 20 mM phosphate pH 6.8, 30 °C.

As to `Cc1cn(CC=O)c(=O)[nH]c1=O` [1a, thyminyl acetaldehyde], the “aldol addition, HPLC and NMR of products” value on TmRhu-1PA was “biotransformation with the thymine derivative (1a) and TmRhu-1PA as a biocatalyst”.
Take `Nc1ccn(CC=O)c(=O)n1` [1b, cytosyl acetaldehyde]: at RAMA, the “aldol addition, HPLC and NMR of products” value is given as “A similar reaction profile was observed when the cytosine derivative”.
